Experimental findings from paper PMC10590383, “Repurposing conformational changes in ANL superfamily enzymes to rapidly generate biosensors for organic and amino acids” (Nature Communications, 2023) are described below.

A short description of series [1]: Substrate (ligand) specificity of […]s. The format is biochemical. As to conditions: for fluorescence response of GECFINDER to each substrate, AVE of 3 repeats: Supplementary Fig. 3 c, substrate specificity. The procedure, abridged:
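Purified biosensor protein (0.75 μM) with ligand, 1 mM ATP and 2.5 mM MgCl2 in 100 mM Tris-HCl, pH 7.5, at room temperature. Fluorescence (Ex 460 or 480/Em 510 nm) read each minute for 15 min. Dose-response fitted by 5-parameter logistic; specificity tested with 20 amino acids at 100 μM as normalized ΔF/F0.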

Series [2] can be described thus: Fluorescence spectra / excitation wavelength scan of […]s. The format is physicochemical. Particulars: Wavelength 300 nm.
The next series deals with T1, GECFINDER-Leu2 (Aneurinibacillus migulanus, UniProt P0C061, A301G/I277L/T278L).
T1 construct: gene grsA
Kind of series: Fluorescence dose-response of purified binding-pocket-engineered sensors (0.75 uM) in 100 mM Tris-HCl pH 7.5, room temperature, 1 mM ATP, 2.5 mM MgCl2, excitation 460 or 480 nm, emission 510 nm; logistic five-parameter fit. The format is biochemical. As to conditions: n = 3. As for the experimental part: (§1) Fig. 4 Engineering ligand specificity of GrsA-PheA for generating […]s. a The selectivity-conferring code of Phe and Leu A domains. b–f Dose–response curve of purified […]s with increasing concentrations of ligands in 100 mM Tris-HCl buffer (pH=7.5). All data shown are means ± S.D. (n = 3 biologically independent samples). g A series of […] reactions was tested to show the […]’s specificity with 20 proteinogenic amino acids. The values on the heatmap represent the ΔF/F0 value normalized to each […]’s maximal ΔF/F0 value ((ΔF/F0)/maximal ΔF/F0). The concentrations of 20 amino acids were 100 μM. The color indicates the average value of three independent biological replicates after 15 min. All data shown are means ± S.D. (n = 3 biologically independent samples). Source data are provided as a Source data file.
(§2) The study conducted dose–response curve, substrate specificity, and fluorescent spectrum analyses in 100-mM Tris buffer (pH = 7.5), while pH stability experiments were performed in 100-mM Tris buffer at three different pH values (6.5, 7.5, and 8.5) at room temperature. […] protein at a concentration of 0.75 μM, various small molecule concentrations, 1 mM ATP, and 2.5 mM MgCl2 were used in the experiments. Fluorescent signals were detected using a Microplate Reader (Synergy H4, Bio Tek) at an excitation/emission wavelength of 460 nm/510 nm or 480 nm/510 nm. The dose-response curve was determined immediately after the addition of the analyte. The total duration of the measurement was 15 min, with readings taken at one-minute intervals. The dose-response curve was plotted using the fluorescence values obtained after achieving stability in the fluorescence signal. The dose-response curves were fitted using the logistic model LOGISTIC5 available in Origin 2021, which could provide a more adequate fit to asymmetric dose-response data[62],[63]. Excitation spectra were scanned from 300 to 540 nm with a step size of 5 nm, and the emission wavelength was set to 560 nm. Emission spectra were scanned from 470 to 700 nm with a step size of 5 nm, and the excitation wavelength was set to 450 nm. The thermal stability of […] was analyzed using the UNcle multifunctional protein stability analysis system. Measurements were performed in 20 mM MOPS buffer with 2 mM DTT at a sample concentration of 1 mg/mL. Absolute fluorescence quantum yields were measured using an absolute photoluminescence quantum yield spectrometer (FS5, Edinburgh).

Another series has as its target T2, GECFINDER-Leu3 (Aneurinibacillus migulanus, UniProt P0C061, A301G/S447N/T278L).
T2 construct: gene grsA
Described as above. Particulars: n = 3. The format is biochemical. The procedure:
as §1, §2

The next series has as its target T3, GECFINDER-Leu4 (Aneurinibacillus migulanus, UniProt P0C061, A301G/I277L/S447N/T278L).
T3 construct: gene grsA
The series is described as above. The format is biochemical. As to conditions: n = 3. The procedure: as §1, §2

Another series has as its target GECFINDER-SβF. The series is described as above. The format is biochemical. As to conditions: n = 3. The procedure: as §1, §2
The next series has as its target T4, GECFINDER-Tyr (Aneurinibacillus migulanus, UniProt P0C061, W239S).
T4 construct: gene grsA
The description is as above. The format is biochemical. As to conditions: n = 3. As for the experimental part:
as §1, §2

With `N[C@@H](Cc1ccccc1)C(=O)O` [Phe], the “AVE of Repeat 1-3, sensor signal with ligand (Supplementary Fig. 7 c)” value in series [1] (0.5 mM ligand, Control AVE 12117.3) came out at 23386.3. Besides, the “fluorescence response of GECFINDER to each substrate, AVE of 3 repeats” value (shortened to “fluorescence response of GECFINDER”) in series [1] came to 0.3443. The results for the “Wavelength scan, AVE of Repeat 1-3 (Fig. 3 d)” value in series [2] (0.001 μM Phe) and in series [2] (1 μM Phe) were 174.667 and 212, respectively.
`N[C@@H](Cc1ccccc1)C(=O)O` [Phe, phenylalanine]: the EC50 (in general, the concentration that produces a half-maximal response) at GECFINDER-Leu2 came out at 606 ± 407 µM; on GECFINDER-Leu3, 392 ± 51.8 µM; at GECFINDER-Leu4, 158 ± 22.6 µM; on GECFINDER-SβF it was 234 ± 23.7 µM; on GECFINDER-Tyr, 258 ± 37.3 µM.
For the compound `N[C@@H](Cc1cnc[nH]1)C(=O)O` [His], the “fluorescence response of GECFINDER” value in series [1] worked out at 0.0452. Moreover, the “Wavelength scan, AVE of Repeat 1-3 (Fig. 3 l)” value came to 201.667 in series [2] (0.005 μM His), 165.667 in series [2] (10 μM His) and 210 in series [2] (1000 μM His).
As to `CC[C@H](C)[C@H](N)C(=O)O` [Ile], in series [1], the “fluorescence response of GECFINDER” value stood at 0.009799. Besides, the results for the “Wavelength scan, AVE of Repeat 1-3 (Fig. 3 j)” value in series [2] (0.05 μM Ile), in series [2] (100 μM Ile) and in series [2] (10000 μM Ile) were 3399.67, 3371.67 and 3289.33, respectively.
